Measured values as given in patent US10004701B2, “Methods and compositions for treating infection” (UNIVERSITY OF ROCHESTER, priority 2012, dated 2018).
Where a name gives a salt, the structure may show the parent alone. Read-outs that look alike come from different tables or passages of the source.

Key:
Assay in all cases: AK assay 384-well format, Prestwick library screening
[1] = tested on: S. aureus strain USA300-0114; type: cell-based, Staphylococcus aureus; settings: 50 μM final drug concentration; for fold induction at 50 µM: Staphylococcus aureus, USA300, 3 h
[2] = tested on: P. aeruginosa; type: cell-based, Pseudomonas aeruginosa; settings: 50 μM final drug concentration; for fold induction at 50 µM: Pseudomonas aeruginosa, 3 h
[3] = tested on: K. pneumoniae; type: cell-based, Klebsiella pneumoniae; settings: 50 μM final drug concentration; for fold induction at 50 µM: Klebsiella pneumoniae, 3 h
[4] = tested on: A. baumannii strain 98-37-09; type: cell-based, Acinetobacter baumannii; settings: 50 μM final drug concentration; for fold induction at 50 µM: Acinetobacter baumannii, 983709, 3 h
[5] = tested on: E. coli; type: cell-based, Escherichia coli; settings: 50 μM final drug concentration; for fold induction at 50 µM: Escherichia coli, 3 h
[6] = tested on: E. cloacae; type: cell-based, Enterobacter cloacae; settings: 50 μM final drug concentration; for fold induction at 50 µM: Enterobacter cloacae, 3 h
[7] = tested on: E. faecium; type: cell-based, Enterococcus faecium; settings: 50 μM final drug concentration; for fold induction at 50 µM: Enterococcus faecium, 3 h
[8] = 384-well format, cutoff for positive-scoring molecules 3-fold increase, read-out: AK-based Prestwick Library Screening Results, S. aureus (increase in extracellular AK activity)
[9] = 384-well format, cutoff for positive-scoring molecules 3-fold increase, read-out: AK-based Prestwick Library Screening Results, P. aeruginosa (increase in extracellular AK activity)
[10] = 384-well format, cutoff for positive-scoring molecules 3-fold increase, read-out: AK-based Prestwick Library Screening Results, K. pneumoniae (increase in extracellular AK activity)
[11] = 384-well format, cutoff for positive-scoring molecules 3-fold increase, read-out: AK-based Prestwick Library Screening Results, A. baumannii (increase in extracellular AK activity)
[12] = 384-well format, cutoff for positive-scoring molecules 3-fold increase, read-out: AK-based Prestwick Library Screening Results, E. coli (increase in extracellular AK activity)
[13] = 384-well format, cutoff for positive-scoring molecules 3-fold increase, read-out: AK-based Prestwick Library Screening Results, E. cloacae (increase in extracellular AK activity)
[14] = 384-well format, cutoff for positive-scoring molecules 3-fold increase, read-out: AK-based Prestwick Library Screening Results, E. faecium (increase in extracellular AK activity)

For `N[C@@H]1CONC1=O` [D-cycloserine], the “AK-based Prestwick library screening result, S. aureus (fold increase in extracellular AK activity)” value ([1]; planktonic S. aureus, positive cutoff 3-fold increase) was 1.4, the “AK-based Prestwick library screening result, P. aeruginosa (fold increase in extracellular AK activity)” value ([2]; planktonic P. aeruginosa, positive cutoff 3-fold increase) was 1.2 and the “AK-based Prestwick library screening result, K. pneumoniae (fold increase in extracellular AK activity)” value ([3]; planktonic K. pneumoniae, positive cutoff 3-fold increase) was 1.1. For the same compound, the “AK-based Prestwick library screening result, A. baumannii (fold increase in extracellular AK activity)” value ([4]; planktonic A. baumannii, positive cutoff 3-fold increase) was 1.0, the “AK-based Prestwick library screening result, E. coli (fold increase in extracellular AK activity)” value ([5]; planktonic E. coli, positive cutoff 3-fold increase) was 1.4 and the “AK-based Prestwick library screening result, E. cloacae (fold increase in extracellular AK activity)” value ([6]; planktonic E. cloacae, positive cutoff 3-fold increase) was 1.2. For the same compound, the “AK-based Prestwick library screening result, E. faecium (fold increase in extracellular AK activity)” value ([7]; planktonic E. faecium, positive cutoff 3-fold increase) was 1.2.

For `COc1ccccc1N1CCN(CCCCNC(=O)c2ccc3ccccc3c2)CC1` [DO 897/99], the “AK-based Prestwick Library Screening Results, S. aureus (fold increase in extracellular AK activity)” value ([1]; planktonic, […]) was 1.1, the “AK-based Prestwick Library Screening Results, P. aeruginosa (fold increase in extracellular AK activity)” value ([2]; planktonic, […]) was 1.3 and the “AK-based Prestwick Library Screening Results, K. pneumoniae (fold increase in extracellular AK activity)” value ([3]; planktonic, […]) was 1.3. The “AK-based Prestwick Library Screening Results, A. baumannii (fold increase in extracellular AK activity)” value ([4]; planktonic, […]) was 1.2, the “AK-based Prestwick Library Screening Results, E. coli (fold increase in extracellular AK activity)” value ([5]; planktonic, […]) was 1.4 and the “AK-based Prestwick Library Screening Results, E. cloacae (fold increase in extracellular AK activity)” value ([6]; planktonic, […]) was 1.7. The “AK-based Prestwick Library Screening Results, E. faecium (fold increase in extracellular AK activity)” value ([7]; planktonic, […]) was 1.0.

With `CN(C)/N=N/c1[nH]cnc1C(N)=O` [Dacarbazine] the fold induction at 50 µM ([1]; planktonic S. aureus, cutoff for positive-scoring molecules 3-fold increase, read-out: AK-based Prestwick Library Screening Results, S. aureus (increase in extracellular AK activity)) was 0.7, the fold induction at 50 µM ([2]; planktonic P. aeruginosa, cutoff for positive-scoring molecules 3-fold increase, read-out: AK-based Prestwick Library Screening Results, P. aeruginosa (increase in extracellular AK activity)) was 0.9 and the fold induction at 50 µM ([3]; planktonic K. pneumoniae, cutoff for positive-scoring molecules 3-fold increase, read-out: AK-based Prestwick Library Screening Results, K. pneumoniae (increase in extracellular AK activity)) was 3.8. It also gave a fold induction at 50 µM ([4]; planktonic A. baumannii, cutoff for positive-scoring molecules 3-fold increase, read-out: AK-based Prestwick Library Screening Results, A. baumannii (increase in extracellular AK activity)) of 1.6, a fold induction at 50 µM ([5]; planktonic E. coli, cutoff for positive-scoring molecules 3-fold increase, read-out: AK-based Prestwick Library Screening Results, E. coli (increase in extracellular AK activity)) of 2 and a fold induction at 50 µM ([6]; planktonic E. cloacae, cutoff for positive-scoring molecules 3-fold increase, read-out: AK-based Prestwick Library Screening Results, E. cloacae (increase in extracellular AK activity)) of 0.8. For the same compound, the fold induction at 50 µM ([7]; planktonic E. faecium, cutoff for positive-scoring molecules 3-fold increase, read-out: AK-based Prestwick Library Screening Results, E. faecium (increase in extracellular AK activity)) was 1.1.

Work on `C#C[C@]1(O)CC[C@H]2[C@@H]3CCC4=Cc5oncc5C[C@]4(C)[C@H]3CC[C@@]21C` [Danazol] yielded a fold induction at 50 µM [1, 8] of 0.6, a fold induction at 50 µM [2, 9] of 0.8 and a fold induction at 50 µM [3, 10] of 0.6. It also gave a fold induction at 50 µM [4, 11] of 0.9, a fold induction at 50 µM [5, 12] of 0.7 and a fold induction at 50 µM [6, 13] of 0.9. It also gave a fold induction at 50 µM [7, 14] of 0.9.

`O=C1CN(/N=C/c2ccc(-c3ccc([N+](=O)[O-])cc3)o2)C(O)=N1` [Dantrolene sodium salt] showed a fold induction at 50 µM ([1]; planktonic S. aureus, 384-well, cutoff for positive-scoring molecules 3-fold increase, read-out: AK-based Prestwick Library Screening Results: S. aureus (increase in extracellular AK activity)) of 1.1, a fold induction at 50 µM ([2]; planktonic P. aeruginosa, 384-well, cutoff for positive-scoring molecules 3-fold increase, read-out: AK-based Prestwick Library Screening Results: P. aeruginosa (increase in extracellular AK activity)) of 1.2 and a fold induction at 50 µM ([3]; planktonic K. pneumoniae, 384-well, cutoff for positive-scoring molecules 3-fold increase, read-out: AK-based Prestwick Library Screening Results: K. pneumoniae (increase in extracellular AK activity)) of 0.9. For the same compound, the fold induction at 50 µM ([4]; planktonic A. baumannii, 384-well, cutoff for positive-scoring molecules 3-fold increase, read-out: AK-based Prestwick Library Screening Results: A. baumannii (increase in extracellular AK activity)) was 1.1, the fold induction at 50 µM ([5]; planktonic E. coli, 384-well, cutoff for positive-scoring molecules 3-fold increase, read-out: AK-based Prestwick Library Screening Results: E. coli (increase in extracellular AK activity)) was 1 and the fold induction at 50 µM ([6]; planktonic E. cloacae, 384-well, cutoff for positive-scoring molecules 3-fold increase, read-out: AK-based Prestwick Library Screening Results: E. cloacae (increase in extracellular AK activity)) was 1.5. The fold induction at 50 µM ([7]; planktonic E. faecium, 384-well, cutoff for positive-scoring molecules 3-fold increase, read-out: AK-based Prestwick Library Screening Results: E. faecium (increase in extracellular AK activity)) was 1.

`Nc1ccc(S(=O)(=O)c2ccc(N)cc2)cc1` [Dapsone] gave a fold induction at 50 µM [1, 8] of 0.6, a fold induction at 50 µM [2, 9] of 0.8 and a fold induction at 50 µM [3, 10] of 0.7. It also gave a fold induction at 50 µM [4, 11] of 1.3, a fold induction at 50 µM [5, 12] of 0.8 and a fold induction at 50 µM [6, 13] of 1.1. It also gave a fold induction at 50 µM [7, 14] of 0.9.

`COc1cccc2c1C(=O)c1c(O)c3c(c(O)c1C2=O)C[C@@](O)(C(C)=O)C[C@@H]3O[C@H]1C[C@H](N)[C@H](O)[C@H](C)O1` [Daunorubicin hydrochloride] gave a fold induction at 50 µM ([1]; planktonic S. aureus, […], read-out: AK-based Prestwick Library Screening Results, S. aureus (increase in extracellular AK activity)) of 2.1, a fold induction at 50 µM ([2]; planktonic P. aeruginosa, […], read-out: AK-based Prestwick Library Screening Results, P. aeruginosa (increase in extracellular AK activity)) of 0.5 and a fold induction at 50 µM ([3]; planktonic K. pneumoniae, […], read-out: AK-based Prestwick Library Screening Results, K. pneumoniae (increase in extracellular AK activity)) of 0.5. For the same compound, the fold induction at 50 µM ([4]; planktonic A. baumannii, […], read-out: AK-based Prestwick Library Screening Results, A. baumannii (increase in extracellular AK activity)) was 0.6, the fold induction at 50 µM ([5]; planktonic E. coli, […], read-out: AK-based Prestwick Library Screening Results, E. coli (increase in extracellular AK activity)) was 0.9 and the fold induction at 50 µM ([6]; planktonic E. cloacae, […], read-out: AK-based Prestwick Library Screening Results, E. cloacae (increase in extracellular AK activity)) was 0.6. It also gave a fold induction at 50 µM ([7]; planktonic E. faecium, […], read-out: AK-based Prestwick Library Screening Results, E. faecium (increase in extracellular AK activity)) of 2.3.

For `N=C(N)N1CCc2ccccc2C1` [Debrisoquin sulfate], the fold induction at 50 µM ([1]; planktonic, cutoff for positive 3-fold increase, read-out: AK-based Prestwick Library Screening Results, S. aureus (fold increase in extracellular AK activity)) was 0.9, the fold induction at 50 µM ([2]; planktonic, cutoff for positive 3-fold increase, read-out: AK-based Prestwick Library Screening Results, P. aeruginosa (fold increase in extracellular AK activity)) was 1 and the fold induction at 50 µM ([3]; planktonic, cutoff for positive 3-fold increase, read-out: AK-based Prestwick Library Screening Results, K. pneumoniae (fold increase in extracellular AK activity)) was 0.8. The fold induction at 50 µM ([4]; planktonic, cutoff for positive 3-fold increase, read-out: AK-based Prestwick Library Screening Results, A. baumannii (fold increase in extracellular AK activity)) was 0.9, the fold induction at 50 µM ([5]; planktonic, cutoff for positive 3-fold increase, read-out: AK-based Prestwick Library Screening Results, E. coli (fold increase in extracellular AK activity)) was 1.2 and the fold induction at 50 µM ([6]; planktonic, cutoff for positive 3-fold increase, read-out: AK-based Prestwick Library Screening Results, E. cloacae (fold increase in extracellular AK activity)) was 1.7. The fold induction at 50 µM ([7]; planktonic, cutoff for positive 3-fold increase, read-out: AK-based Prestwick Library Screening Results, E. faecium (fold increase in extracellular AK activity)) was 1.

For `C[N+](C)(C)CCCCCCCCCC[N+](C)(C)C` [Decamethonium bromide], the fold induction at 50 µM ([1]; cutoff for positive-scoring molecules 3-fold increase, read-out: AK-based Prestwick Library Screening Results, S. aureus (fold increase in extracellular AK activity)) was 0.4, the fold induction at 50 µM ([2]; cutoff for positive-scoring molecules 3-fold increase, read-out: AK-based Prestwick Library Screening Results, P. aeruginosa (fold increase in extracellular AK activity)) was 0.4 and the fold induction at 50 µM ([3]; cutoff for positive-scoring molecules 3-fold increase, read-out: AK-based Prestwick Library Screening Results, K. pneumoniae (fold increase in extracellular AK activity)) was 0.5. For the same compound, the fold induction at 50 µM ([4]; cutoff for positive-scoring molecules 3-fold increase, read-out: AK-based Prestwick Library Screening Results, A. baumannii (fold increase in extracellular AK activity)) was 0.5, the fold induction at 50 µM ([5]; cutoff for positive-scoring molecules 3-fold increase, read-out: AK-based Prestwick Library Screening Results, E. coli (fold increase in extracellular AK activity)) was 0.5 and the fold induction at 50 µM ([6]; cutoff for positive-scoring molecules 3-fold increase, read-out: AK-based Prestwick Library Screening Results, E. cloacae (fold increase in extracellular AK activity)) was 0.5. The fold induction at 50 µM ([7]; cutoff for positive-scoring molecules 3-fold increase, read-out: AK-based Prestwick Library Screening Results, E. faecium (fold increase in extracellular AK activity)) was 0.9.
